From patent US10406158B2, “Methods and compositions for treating abnormal cell growth” (Verastem, Inc., priority 2014, dated 2019)

How the values were obtained:
[1] = test system: mesothelioma cells (Mero-41); assay: Matrigel on-top (MoT) 3D culture, CellTiter-Glo cell viability, 9x9 combination matrix; format: cell-based; conditions: MEK inhibitor in combination with FAK inhibitor VS-6063, 96 hours incubation, compared with Bliss, HSA and Loewe models
Procedure: (§1) Cell Lines: Cancer cell lines were purchased from American Type Culture Collection (Manassas, VA) and cultured under ATCC recommended standard culture conditions. Mero-41 (mesothelioma cell line) were purchased from Sigma-Aldrich (St. Louis, MO) and cultured under ECACC recommended standard culture conditions. […] TOV-21G (ovarian clear cell carcinoma cell line) were cultured under ECACC recommended standard culture conditions. Growth media for all cell lines were supplemented with penicillin (100 units/ml)/streptomycin (100 μg/ml).
(§2) Compound were used at the top concentration 10 uM in a 2-fold dilution. Paclitaxel was dosed at the top concentration 1 uM in a 3-fold dilution.
(§3) A ‘Matrigel on-top’ (MoT) assay where cells were propagated in a 3-dimentional culture was used. Cells were plated above a dense base layer of Matrigel (BD Biosciences, Franklin Lakes, N.J.), diluted 1:1 with culture medium. Single cell preparations were resuspended in dilute Matrigel (1:50 in culture medium) and seeded to cover the Matrigel base layer. This ensured that ovarian cancer cells were surrounded with extracellular matrix (ECM) components, of which collagen and laminin are the major Matrigel constituents. Cells were seeded in a density of 500 cells per well in 384-well black Ultra-low attachment plates with clear bottom (Corning, Tewksbury MA). […] Cell survival/proliferation was assessed by CellTiter-Glo® Luminescent Cell Viability Assay (Promega, Madison, Wis.).
(§4) Combination effects were evaluated by comparing the averaged viability/inhibition to three different null reference models derived from the single agent activities.
(§5) The expected additivity effect is the statistical expectation for the combined effect from independent inhibitors: Mathematically, Bliss (FU)=FUA1 X FUA2, where FUA1 and FUA2 are the unaffected fraction when treated with compounds Al and A2, respectively.

[2] = test system: breast cancer cells (MDA-MB-231); assay: as above; format: cell-based; conditions: MEK inhibitor in combination with FAK inhibitor VS-6063, 96 hours incubation, compared with Bliss, HSA and Loewe models
Procedure: as §1, §2, §3, §4, §5

Row | Compound | combination effect on cell viability [1] | combination effect on cell viability [2]
1 | cobimetinib | more than additive effect | more than additive effect
2 | O=C(NOCCO)c1ccc2cncn2c1Nc1ccc(I)cc1F [GDC-0623] | more than additive effect | more than additive effect
3 | Cn1cnc2c(F)c(Nc3ccc(Br)cc3Cl)c(C(=O)NOCCO)cc21 [AZD-6244] | more than additive effect | 
4 | O=C(NC[C@H](O)CO)c1ccncc1Nc1ccc(I)cc1F [pimasertib] | more than additive effect | more than additive effect
5 | trametinib | more than additive effect | more than additive effect
